Measurements reported in patent US11213030B2, “4-(3,4-dihydronaphth-1-yl or 2H-chromen-4-yl)-5-hydroxy-2H-pyradizin-3-ones as herbicides” (FMC Corporation, priority 2017, dated 2022).

Columns and labels:
Type in all cases: in vivo
[1] = system: barnyardgrass (Echinochloa crus-galli); experiment: Test A preemergence, barnyardgrass; conditions: 0 to 100 scale
Description: (§1) Seeds of plant species selected from barnyardgrass (Echinochloa crus-galli), kochia (Kochia scoparia), ragweed (common ragweed, Ambrosia elatior), ryegrass, It. (Italian ryegrass, Lolium multiflorum), foxtail, green (green foxtail, Setaria viridis), and pigweed (Amaranthus retroflexus) were planted into a blend of loam soil and sand and treated preemergence with a directed soil spray using test chemicals formulated in a non-phytotoxic solvent mixture which included a surfactant. At the same time, plants selected from these weed species and also wheat (Triticum aestivum), corn (Zea mays), blackgrass (Alopecurus myosuroides), and galium (catchweed bedstraw, Galium aparine) were planted in pots containing the same blend of loam soil and sand and treated with postemergence applications of test chemicals formulated in the same manner. Plants ranged in height from 2 to 10 cm and were in the one- to two-leaf stage for the postemergence treatment. Treated plants and untreated controls were maintained in a greenhouse for approximately 10 d, after which time all treated plants were compared to untreated controls and visually evaluated for injury. Plant response ratings, summarized in Table A, are based on a 0 to 100 scale where 0 is no effect and 100 is complete control. A dash (-) response means no test result.

kochia (Kochia scoparia) [2] = experiment: Test A preemergence, kochia; conditions: 0 to 100 scale
Description: as §1

[3] = system: ragweed (common ragweed, Ambrosia elatior); experiment: Test A preemergence, ragweed; conditions: 0 to 100 scale
Description: as §1

[4] = system: ryegrass, It. (Italian ryegrass, Lolium multiflorum); experiment: Test A preemergence, Italian ryegrass; conditions: 0 to 100 scale
Description: as §1

[5] = system: pigweed (Amaranthus retroflexus); experiment: Test A preemergence, pigweed; conditions: 0 to 100 scale
Description: as §1

[6] = system: barnyardgrass (Echinochloa crus-galli); experiment: Test A postemergence, barnyardgrass; conditions: 0 to 100 scale
Description: as §1

kochia (Kochia scoparia) [7] = experiment: Test A postemergence, kochia; conditions: 0 to 100 scale
Description: as §1

[8] = system: ragweed (common ragweed, Ambrosia elatior); experiment: Test A postemergence, ragweed; conditions: 0 to 100 scale
Description: as §1

[9] = system: ryegrass, It. (Italian ryegrass, Lolium multiflorum); experiment: Test A postemergence, Italian ryegrass; conditions: 0 to 100 scale; for Plant response rating, Ryegrass, Italian: 500 g ai/ha
Description: as §1

[10] = system: pigweed (Amaranthus retroflexus); experiment: Test A postemergence, pigweed; conditions: 0 to 100 scale
Description: as §1

[11] = system: wheat (Triticum aestivum); experiment: Test A postemergence, wheat; conditions: 0 to 100 scale
Description: as §1

corn (Zea mays) = experiment: Test A postemergence, corn; conditions: 0 to 100 scale
Description: as §1

[12] = system: blackgrass (Alopecurus myosuroides); experiment: Test A postemergence, blackgrass; conditions: 0 to 100 scale
Description: as §1

[13] = system: galium (catchweed bedstraw, Galium aparine); experiment: Test A postemergence, galium; conditions: 0 to 100 scale
Description: as §1

[14] = system: barnyardgrass (Echinochloa crus-galli); experiment: Test B flooded paddy test, barnyardgrass; conditions: Flood, 250 g ai/ha applied to paddy water, 2-leaf stage, 13 to 15 d; scale of 0 to 100 where 0 is no effect and 100 is complete control
Description: (§2) Plant species in the flooded paddy test selected from rice (Oryza sativa), sedge, umbrella (small-flower umbrella sedge, Cyperus difformis), ducksalad (Heteranthera limosa), and barnyardgrass (Echinochloa crus-galli) were grown to the 2-leaf stage for testing. At the time of treatment, test pots were flooded to 3 cm above the soil surface, treated by application of test compounds directly to the paddy water, and then maintained at that water depth for the duration of the test. Treated plants and controls were maintained in a greenhouse for 13 to 15 d, after which time all species were compared to controls and visually evaluated. Plant response ratings, summarized in Table B, are based on a scale of 0 to 100 where 0 is no effect and 100 is complete control. A dash (-) response means no test result.

[15] = system: ducksalad (Heteranthera limosa); experiment: Test B flooded paddy test, ducksalad; conditions: Flood, 250 g ai/ha applied to paddy water, 2-leaf stage, 13 to 15 d; scale of 0 to 100 where 0 is no effect and 100 is complete control
Description: as §2

rice (Oryza sativa) = experiment: Test B flooded paddy test, rice; conditions: Flood, 250 g ai/ha applied to paddy water, 2-leaf stage, 13 to 15 d; scale of 0 to 100 where 0 is no effect and 100 is complete control
Description: as §2

[16] = system: sedge, umbrella (small-flower umbrella sedge, Cyperus difformis); experiment: Test B flooded paddy test, umbrella sedge; conditions: Flood, 250 g ai/ha applied to paddy water, 2-leaf stage, 13 to 15 d; scale of 0 to 100 where 0 is no effect and 100 is complete control
Description: as §2

Foxtail, Giant [17] = experiment: Test A postemergence, giant foxtail; conditions: 0 to 100 scale
Foxtail, Giant [18] = experiment: Test A preemergence, giant foxtail; conditions: 0 to 100 scale
[19] = system: foxtail, green (green foxtail, Setaria viridis); experiment: Test A preemergence, green foxtail; conditions: 31 g ai/ha, 0 to 100 scale
Description: as §1

## COc1c(C)nn(C)c(=O)c1C1=CCC(C)(C)c2ccccc21 [Compound 6]
[1]; 125 g ai/ha
  Plant response rating, Barnyardgrass: 0
[1]; 500 g ai/ha
  Plant response rating, Barnyardgrass: 30
Kochia (Kochia scoparia) [2]; 125 g ai/ha
  Plant response rating, Kochia: 0
Kochia (Kochia scoparia) [2]; 500 g ai/ha
  Plant response rating, Kochia: 40
[3]; 125 g ai/ha
  Plant response rating, Ragweed: 0
[3]; 500 g ai/ha
  Plant response rating, Ragweed: 0
[4]; 125 g ai/ha
  Plant response rating, Ryegrass, It.: 0
[4]; 500 g ai/ha
  Plant response rating, Ryegrass, It.: 0
[5]; 125 g ai/ha
  Plant response rating, Pigweed: 0
[5]; 500 g ai/ha
  Plant response rating, Pigweed: 0
[6]; 125 g ai/ha
  Plant response rating, Barnyardgrass: 0
[6]; 500 g ai/ha
  Plant response rating, Barnyardgrass: 0
Kochia (Kochia scoparia) [7]; 125 g ai/ha
  Plant response rating, Kochia: 0
Kochia (Kochia scoparia) [7]; 500 g ai/ha
  Plant response rating, Kochia: 0
[8]; 125 g ai/ha
  Plant response rating, Ragweed: 0
[8]; 500 g ai/ha
  Plant response rating, Ragweed: 20
[9]
  Plant response rating, Ryegrass, Italian: 0
[10]; 125 g ai/ha
  Plant response rating, Pigweed: 0
[10]; 500 g ai/ha
  Plant response rating, Pigweed: 0
[11]; 125 g ai/ha
  Plant response rating, Wheat: 0
[11]; 500 g ai/ha
  Plant response rating, Wheat: 0
Corn (Zea mays); 125 g ai/ha
  Plant response rating, Corn: 0
Corn (Zea mays); 500 g ai/ha
  Plant response rating, Corn: 0
[12]; 125 g ai/ha
  Plant response rating, Blackgrass: 0
[12]; 500 g ai/ha
  Plant response rating, Blackgrass: 20
[13]; 125 g ai/ha
  Plant response rating, Galium: 0
[13]; 500 g ai/ha
  Plant response rating, Galium: 0
[14]
  Plant response rating, Barnyardgrass: 0
[15]
  Plant response rating, Ducksalad: 0
Rice (Oryza sativa)
  Plant response rating, Rice: 0
[16]
  Plant response rating, Sedge, Umbrella: 0
Foxtail, Giant [17]; 125 g ai/ha
  Plant response rating, Foxtail, Giant: 0
Foxtail, Giant [17]; 500 g ai/ha
  Plant response rating, Foxtail, Giant: 0
Foxtail, Giant [18]; 125 g ai/ha
  Plant response rating, Foxtail, Giant: 0
Foxtail, Giant [18]; 500 g ai/ha
  Plant response rating, Foxtail, Giant: 0

## Cc1nn(C)c(=O)c(C2=CCC(C)(C)c3ccccc32)c1O [Compound 7]
[1]; 125 g ai/ha
  Plant response rating, Barnyardgrass: 0
[1]; 500 g ai/ha
  Plant response rating, Barnyardgrass: 0
Kochia (Kochia scoparia) [2]; 125 g ai/ha
  Plant response rating, Kochia: 0
Kochia (Kochia scoparia) [2]; 500 g ai/ha
  Plant response rating, Kochia: 0
[3]; 125 g ai/ha
  Plant response rating, Ragweed: 0
[3]; 500 g ai/ha
  Plant response rating, Ragweed: 0
[4]; 125 g ai/ha
  Plant response rating, Ryegrass, It.: 0
[4]; 500 g ai/ha
  Plant response rating, Ryegrass, It.: 10
[5]; 125 g ai/ha
  Plant response rating, Pigweed: 0
[5]; 500 g ai/ha
  Plant response rating, Pigweed: 10
[6]; 125 g ai/ha
  Plant response rating, Barnyardgrass: 10
[6]; 500 g ai/ha
  Plant response rating, Barnyardgrass: 30
Kochia (Kochia scoparia) [7]; 125 g ai/ha
  Plant response rating, Kochia: 30
Kochia (Kochia scoparia) [7]; 500 g ai/ha
  Plant response rating, Kochia: 70
[8]; 125 g ai/ha
  Plant response rating, Ragweed: 0
[8]; 500 g ai/ha
  Plant response rating, Ragweed: 70
[9]; 125 g ai/ha
  Plant response rating, Ryegrass, It.: 30
[9]
  Plant response rating, Ryegrass, Italian: 80
[10]; 125 g ai/ha
  Plant response rating, Pigweed: 80
[10]; 500 g ai/ha
  Plant response rating, Pigweed: 90
[11]; 125 g ai/ha
  Plant response rating, Wheat: 0
[11]; 500 g ai/ha
  Plant response rating, Wheat: 0
Corn (Zea mays); 125 g ai/ha
  Plant response rating, Corn: 0
Corn (Zea mays); 500 g ai/ha
  Plant response rating, Corn: 10
[12]; 125 g ai/ha
  Plant response rating, Blackgrass: 10
[12]; 500 g ai/ha
  Plant response rating, Blackgrass: 10
[13]; 125 g ai/ha
  Plant response rating, Galium: 50
[13]; 500 g ai/ha
  Plant response rating, Galium: 70
[14]
  Plant response rating, Barnyardgrass: 0
[15]
  Plant response rating, Ducksalad: 0
Rice (Oryza sativa)
  Plant response rating, Rice: 0
[16]
  Plant response rating, Sedge, Umbrella: 0
Foxtail, Giant [17]; 125 g ai/ha
  Plant response rating, Foxtail, Giant: 0
Foxtail, Giant [17]; 500 g ai/ha
  Plant response rating, Foxtail, Giant: 10
Foxtail, Giant [18]; 125 g ai/ha
  Plant response rating, Foxtail, Giant: 0
Foxtail, Giant [18]; 500 g ai/ha
  Plant response rating, Foxtail, Giant: 0

## CC1=C(c2c(O)c(Cl)nn(C)c2=O)c2cc(C)ccc2CC1 [Compound 8]
[1]; 31 g ai/ha
  Plant response rating, Barnyardgrass: 0
[1]; 125 g ai/ha
  Plant response rating, Barnyardgrass: 60
Kochia (Kochia scoparia) [2]; 125 g ai/ha
  Plant response rating, Kochia: 10
[3]; 31 g ai/ha
  Plant response rating, Ragweed: 0
[3]; 125 g ai/ha
  Plant response rating, Ragweed: 30
[4]; 31 g ai/ha
  Plant response rating, Ryegrass, It.: 0
[4]; 125 g ai/ha
  Plant response rating, Ryegrass, It.: 10
[19]
  Plant response rating, Foxtail, Green: 0
[5]; 31 g ai/ha
  Plant response rating, Pigweed: 10
[5]; 125 g ai/ha
  Plant response rating, Pigweed: 100
[6]; 31 g ai/ha
  Plant response rating, Barnyardgrass: 50
[6]; 125 g ai/ha
  Plant response rating, Barnyardgrass: 80
Kochia (Kochia scoparia) [7]; 31 g ai/ha
  Plant response rating, Kochia: 40
Kochia (Kochia scoparia) [7]; 125 g ai/ha
  Plant response rating, Kochia: 50
[8]; 31 g ai/ha
  Plant response rating, Ragweed: 80
[8]; 125 g ai/ha
  Plant response rating, Ragweed: 100
[9]; 31 g ai/ha
  Plant response rating, Ryegrass, It.: 40
[9]; 125 g ai/ha
  Plant response rating, Ryegrass, It.: 80
[10]; 31 g ai/ha
  Plant response rating, Pigweed: 90
[10]; 125 g ai/ha
  Plant response rating, Pigweed: 100
[11]; 31 g ai/ha
  Plant response rating, Wheat: 0
[11]; 125 g ai/ha
  Plant response rating, Wheat: 0
Corn (Zea mays); 31 g ai/ha
  Plant response rating, Corn: 0
Corn (Zea mays); 125 g ai/ha
  Plant response rating, Corn: 20
[12]; 31 g ai/ha
  Plant response rating, Blackgrass: 20
[12]; 125 g ai/ha
  Plant response rating, Blackgrass: 30
[13]; 31 g ai/ha
  Plant response rating, Galium: 90
[13]; 125 g ai/ha
  Plant response rating, Galium: 90
[14]
  Plant response rating, Barnyardgrass: 60
[15]
  Plant response rating, Ducksalad: 90
Rice (Oryza sativa)
  Plant response rating, Rice: 0
[16]
  Plant response rating, Sedge, Umbrella: 95
Foxtail, Giant [17]; 31 g ai/ha
  Plant response rating, Foxtail, Giant: 60
Foxtail, Giant [17]; 125 g ai/ha
  Plant response rating, Foxtail, Giant: 80
Foxtail, Giant [18]; 125 g ai/ha
  Plant response rating, Foxtail, Giant: 70
